The nature of series [1]: Mouse serum binding, equilibrium dialysis. (In equilibrium dialysis only unbound substance equilibrates across the membrane.)
Series [2] relates to E. coli TolC(−). The series is described as follows: TolC(−) MIC (NB). Conditions: Escherichia coli, read-out: TolC(−) MIC (μM)(NB). The format is cell-based.
The nature of series [3]: Aqueous solubility, nephelometry. Conditions: water, kinetic from dmso stock.
Series [4] in a line: Mammalian cell cytotoxicity.
Series [5] in a line: Microsomal stability + NADPH. Conditions: mouse liver microsomes, 0.5 hr at 37° C.
The subject of series [6] is N. gonorrhoeae 49226. The format is cell-based. The conditions noted are these: Neisseria gonorrhoeae; N. gonorrhoeae 49226; read-out: MIC.
The subject of series [7] is MRSA-1094 (MDR). The format is cell-based. The conditions noted are these: Staphylococcus aureus; MRSA-1094 (MDR); read-out: MIC.
For series [8], the system named is S. aureus ATCC 25923 (MSSA. osteomyelitis isolate). The class given is cell-based. The conditions noted are these: Staphylococcus aureus; S. aureus ATCC 25923 (MSSA); read-out: MIC.
The test system of series [9] is E. coli (700, TolC+) efflux pos. The class given is cell-based. Conditions: Escherichia coli; E. coli (700, TolC+) efflux pos; read-out: MIC.
Series [10] can be described thus: Caco-2 permeability. The conditions noted are these: human, direction not given. The class given is in vitro ADME. An excerpt:
Res., 15(5): 726-733 (1998).
In general terms: Passage across Caco-2 layers is used to estimate intestinal permeability.

For series [11], the system named is E. coli TolC(−). Conditions: MIC in the presence of 10% fetal calf serum versus without.
The nature of series [12]: Mouse serum stability. The conditions noted are these: 5 μM, 37° C., 4 h.

From patent US11505533B2, “Metabolically stable N-acylaminooxadiazoles useful as antibacterial agents” (MICROBIOTIX, INC., priority 2017, dated 2022) come the findings set out here.

The term fraction unbound denotes free concentration divided by total concentration. A high value points to weak binding. As usually defined, the MIC is the smallest concentration in the dilution series that meets the test's criterion for growth inhibition. Usually solubility stands for the concentration that dissolves in the medium under given conditions. A higher solubility goes with a readily soluble substance. Usually CC50 stands for the concentration giving 50% cytotoxicity. Low readings indicate harm at low concentration, high ones better tolerance by the cells. In general, Papp refers to a coefficient for how fast a substance crosses the barrier. A low value points to slow passage.

The structures appear in SMILES notation. In brackets after ≈: the same amount, converted by molar mass.

In [1], `O=C(Nc1nnc(C2CCCCC2)o1)c1ccc(Oc2ccccc2)nc1` [compound 4780] gave an unbound share (fraction unbound) of 0.005. Further, the MIC in [2] amounted to 1.24 µM (≈ 0.452 µg/mL).
`Cc1ccccc1Oc1ccc(C(=O)Nc2nnc(-c3ccc(F)cc3)o2)cc1` [compound 4307] registered a solubility in series [3] of 12.5 µM (≈ 4.87 µg/mL). This compound gave a CC50 in series [4] of 65 µM. Moreover, the “Microsomal Stability + NADPH % degraded” value in series [5] was below 30%. Also, the MIC in series [2] is 1.56 µM (≈ 0.608 µg/mL).
On to `O=C(Nc1nnc(-c2ccc(F)cc2)o1)N1CCN(c2ncccn2)CC1` [compound 4465], for which the solubility in [3] stood at 12.5 µM (≈ 4.62 µg/mL). The compound further gave a CC50 in [4] above 100 µM. The MIC in [2] stood at 6.25 µM (≈ 2.31 µg/mL).
Turning to `O=C(Nc1nnc(-c2ccc(F)cc2)o1)N1CCc2cc(F)ccc2C1` [compound 4331], the MIC in [6] was 0.089 µg/mL (≈ 0.25 µM); in [7] it was 3.15 µg/mL (≈ 8.84 µM); in [8], 4.45 µg/mL (≈ 12.5 µM); in [9], above 35 µg/mL; in series [2] it was 3.12 µM (≈ 1.11 µg/mL). The compound also came in with a solubility in series [3] of 12.5 µM (≈ 4.45 µg/mL). In addition, the midpoint of cytotoxicity in [4], the CC50, lay at 34 µM. In [5], the “Microsomal Stability + NADPH % degraded” value was below 30%.
`O=C(Nc1nnc(C2CCCCC2)o1)c1ccc(Oc2cccc(O)c2)cc1` [compound 4801] returned a solubility in series [3] of 12.5 µM (≈ 4.74 µg/mL). In [10], the Papp was determined as 13.2 ×10⁻⁶ cm/s. In addition, the “Fold Serum Shift vs. TolC(−)” value in series [11] came out at 16 fold. Moreover, the “Serum Stability (% remain)” value in series [12] is on record as above 95%. Besides, the minimum inhibitory concentration (MIC) in [2] worked out at 3.13 µM (≈ 1.19 µg/mL).
`O=C(Nc1nnc(C2CCCCC2)o1)N1CCC(Cl)=C(Cl)C1` [compound 4808]: the Papp in [10] is 24.5 ×10⁻⁶ cm/s. Moreover, the “Serum Stability (% remain)” value in series [12] was above 95%. The MIC in series [2] amounted to 6.25 µM (≈ 2.16 µg/mL).
With `COC(=O)C1=CCN(C(=O)Nc2nnc(-c3ccc(F)cc3)o2)CC1` [compound 4348], the solubility in series [3] is 25 µM (≈ 8.66 µg/mL). The CC50 in series [4] was above 100 µM. Further, the minimum inhibitory concentration (MIC) in series [2] was 12.5 µM (≈ 4.33 µg/mL).
`COc1cccc(Oc2ccc(C(=O)Nc3nnc(-c4ccc(F)cc4)o3)cc2)c1` [compound 4309]: the solubility in series [3] amounted to 6.25 µM (≈ 2.53 µg/mL). This compound also had a CC50 in series [4] above 100 µM. Moreover, in series [5], the “Microsomal Stability + NADPH % degraded” value is below 30%. The minimal inhibitory concentration (MIC) in series [2] was determined as 0.984 µM (≈ 0.399 µg/mL).
For `C=CCN(C)C(=O)Nc1nnc(-c2ccc(F)cc2)o1` [compound 4345], the MIC in series [7] was 19.5 µg/mL (≈ 70.7 µM); in series [8], 27.6 µg/mL (≈ 99.9 µM); in series [9], above 27 µg/mL; in series [2] it was 25 µM (≈ 6.91 µg/mL).
With `O=C(Nc1nnc(-c2ccc(F)cc2)o1)N1CCC(C(F)(F)F)CC1` [compound 4840], the “Fold Serum Shift vs. TolC(−)” value in [11] is given as 4 fold. Further, in series [2], the MIC was found to be 6.25 µM (≈ 2.24 µg/mL).
`O=C(Nc1nnc(-c2ccc(F)cc2)o1)c1ccc(Oc2cccc(O)c2)cc1` [compound 4304] had a solubility in [3] of 50 µM (≈ 19.6 µg/mL). Moreover, the Papp in series [10] came to 13.7 ×10⁻⁶ cm/s. Besides, the free fraction (fraction unbound) in series [1] is below 0.01. In [4], this compound had a CC50 above 100 µM. For the same compound, the “Fold Serum Shift vs. TolC(−)” value in series [11] is on record as 28.5 fold. In series [5], the “Microsomal Stability + NADPH % degraded” value is 85%. For the same compound, the MIC in series [2] is 3.51 µM (≈ 1.37 µg/mL).
For the compound `O=C(Nc1nnc(-c2ccc(F)cc2)o1)N1CC=C(C(F)(F)F)CC1` [compound 4347], the MIC in [6] was 0.089 µg/mL (≈ 0.25 µM); in series [7] it was 2.23 µg/mL (≈ 6.26 µM); in [8], above 35 µg/mL; in series [9] it was above 27 µg/mL; in series [2], 2.48 µM (≈ 0.884 µg/mL). In series [3], this compound had a solubility of 3.1 µM (≈ 1.1 µg/mL). In [10], this compound returned a Papp of 21.8 ×10⁻⁶ cm/s. Further, in series [1], the fraction unbound was below 0.01. In series [4], the half-maximal cytotoxic concentration (CC50) was above 100 µM. Further, in [12], the “Serum Stability (% remain)” value worked out at 93%. The “Microsomal Stability + NADPH % degraded” value in series [5] is below 30%.
Regarding `O=C(Nc1nnc(C2CCCC2)o1)c1ccc(Oc2ccccc2)nc1` [compound 4470], the concentration in solution in [3] (solubility) came to 100 µM (≈ 35 µg/mL). Besides, in [1], the free fraction (fraction unbound) was 0.022. The compound also registered a cytotoxic concentration (CC50) in series [4] above 100 µM. Besides, the “Fold Serum Shift vs. TolC(−)” value in [11] came out at 7.1 fold. The “Microsomal Stability + NADPH % degraded” value in series [5] was 2%. Besides, the MIC in series [2] turned out to be 7.02 µM (≈ 2.46 µg/mL).
In turn, `CC(Oc1ccc(C(=O)Nc2nnc(-c3ccc(F)cc3)o2)cc1)c1ccccc1` (centres unmarked) [compound 4357] came in with a solubility in [3] of 3.1 µM (≈ 1.25 µg/mL). The CC50 in series [4] turned out to be 45 µM. In addition, in series [2], the MIC is 1.56 µM (≈ 0.63 µg/mL).
Turning to `Cc1cccc(-c2nnc(NC(=O)c3ccc(Oc4ccccc4)nc3)o2)c1` [compound 4499], the concentration in solution in series [3] (solubility) came to 25 µM (≈ 9.31 µg/mL). In [1], this compound yielded a fraction unbound below 0.01. The cytotoxic concentration (CC50) in series [4] is above 100 µM. Also, the “Fold Serum Shift vs. TolC(−)” value in series [11] is listed as 20 fold. Also, the “Microsomal Stability + NADPH % degraded” value in series [5] is 19%. For the same compound, the MIC in series [2] amounted to 1.56 µM (≈ 0.581 µg/mL).
